From patent US20220054387A1, “COMPOSITION COMPRISING AT LEAST ONE GLYCOSYLATED FLAVONOID AND ITS USE IN COSMETICS OR DERMATOLOGY” (PURALLY, priority 2020, published 2022)

Experiments:
IL-31 = IL-31 release by keratinocytes exposed to benzo[a]pyrene and blue light (ELISA); format: cell-based, human
Experimental: The cells used in this study are primary cultures of normal human keratinocytes (NHKs) extracted after skin surgery of a donor.
They were cultured in a complete KSFM environment: Keratinocyte-SFM (17005-31, Gibco) with L-Glutamine, supplemented with a recombinant human epidermal growth factor (EGFhr, 10450-013, Gibco), extract of bovine pituitary gland (BPE, 13028-014, Gibco) and 1% of streptomycin penicillin (15070-063, Gibco) at 37° C. in 5% CO2 atmosphere up until 80% confluence.
The keratinocytes cultured according to Example 1 are exposed either to benzo[a]pyrene (B[a]P) at 20 μμM, or to blue light (450 nm) at 40 J/cm^2 or to the combination of both at the same doses. A myricitrin treatment with amounts ranging from 10 μμM to 50 μμM is applied to cells that have previously received the B[a]P and blue light combination.
After 24 hours' treatment, an assay of the interleukin 31 (IL-31) released by the cells is performed, via an immunoassay kit (ELISA.) The IL-31 assay was performed with the human IL-31 ELISA MAX™ Deluxe Set (445704, Biolegend.)

[1] = system: normal human keratinocytes; experiment: Keratinocyte viability assay (XTT); format: cell-based; conditions: myricitrin 0.21 to 50 μμM, 24 hours
Experimental: The cells used in this study are primary cultures of normal human keratinocytes (NHKs) extracted after skin surgery of a donor. They were cultured in a complete KSFM environment: Keratinocyte-SFM (17005-31, Gibco) with L-Glutamine, supplemented with a recombinant human epidermal growth factor (EGFhr, 10450-013, Gibco), extract of bovine pituitary gland (BPE, 13028-014, Gibco) and 1% of streptomycin penicillin (15070-063, Gibco) at 37° C. in 5% CO2 atmosphere up until 80% confluence. On D0, normal human keratinocytes are incubated in 96-well plates in a culture medium. The cells are left to stabilize for 24 hours at 37° C. in 5% CO2 atmosphere, as described in Example 1. […] The NHK viability was assessed using a Cell Proliferation Kit II (XTT) (11465015001, Roche) in accordance with the manufacturer's instructions. The XTT system, a colorimetric method, is a test used to quantify mitochondrial activity. […] The formazan derivate is measured by spectrophotometry (at 450 nm with 650 nm of reference.) For each condition, optical density data averages (OD, absorbance) are calculated. The viability of the treated cells is expressed as a percentage of untreated control batch: a treatment that reduces the viability of the cells to below the comparative limit of 80% of mitochondrial activity in the untreated control batch, is considered cytotoxic for the cells. […]

SMILES	increase in IL-31 by the keratinocytes (IL-31; benzo[a]pyrene 20 μμM combined with blue light (450 nm) 40 J/cm^2)	toxic effect on keratinocytes (cell viability, XTT) [1]	decrease in the production of IL-31 (IL-31; myricitrin as of 20 μM, cells pre-treated with 20 μM of B[a]P and 40 J/cm^2 of blue light, 24 hours' treatment) [%]
c1ccc2c(c1)cc1ccc3cccc4ccc2c1c34 [benzo[a]pyrene, reference compound]	+111%		
C[C@@H]1O[C@@H](Oc2c(-c3cc(O)c(O)c(O)c3)oc3cc(O)cc(O)c3c2=O)[C@H](O)[C@H](O)[C@H]1O [myricitrin, 5,7-dihydroxy-3-[(2S,3R,4R,5R,6S)-3,4,5-trihydroxy-6-methyloxan-2-yl]oxy-2-(3,4,5-trihydroxyphenyl)chromen-4-one]		no toxic effect	−100
